pIC50: −log10 of the molar value.
These molecules were tested against T1, MAGL (Homo sapiens, UniProt Q99685) (assay: 2-AG assay (MAGL inhibitory activity, hydrolysis of 2-arachidonoylglycerol to arachidonic acid followed by mass spectrometry)). Conditions: 8 μM 2-arachidonoylglycerol, 15 min pre-incubation, 30 min incubation at RT, RapidFire MS readout.
T1 sequence (Q99685 1-303): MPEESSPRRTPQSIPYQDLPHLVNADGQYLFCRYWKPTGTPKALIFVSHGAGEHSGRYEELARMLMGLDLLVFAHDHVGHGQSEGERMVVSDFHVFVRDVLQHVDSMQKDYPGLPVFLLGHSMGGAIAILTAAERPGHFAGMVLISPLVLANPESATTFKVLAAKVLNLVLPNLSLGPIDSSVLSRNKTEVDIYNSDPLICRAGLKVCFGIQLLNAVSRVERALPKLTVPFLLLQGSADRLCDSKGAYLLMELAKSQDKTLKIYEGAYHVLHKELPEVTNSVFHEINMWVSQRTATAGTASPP
Format: biochemical
How it was run: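 Human MAGL ([…] final) pre-incubated 15 min at RT with compound in 50 mM TRIS, 1 mM EDTA, 0.01% Tween-20, 2.5% DMSO; 8 μM 2-AG then added for 30 min at RT. Acetonitrile quench with d8-arachidonic acid; arachidonic acid measured by RapidFire SPE–MS/MS, activity from arachidonic acid/d8 ratio.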

SMILES | pIC50
O=C(N1CCC(Oc2cccc(F)c2)CC1)N1CC2(CC(n3cnc(C4CC4)n3)C2)C1 [Example 506, [6-(3-cyclopropyl-1,2,4-triazol-1-yl)-2-azaspiro[3.3]heptan-2-yl]-[4-(3-fluorophenoxy)-1-piperidyl]methanone] | 7.12
CC(C)(C)c1nc(-c2ccc(C(=O)N3CC4(CC(n5ccc(C(F)(F)F)n5)C4)C3)cc2)no1 [Example 5, [4-(5-tert-butyl-1,2,4-oxadiazol-3-yl)phenyl]-[6-[3-(trifluoromethyl)pyrazol-1-yl]-2-azaspiro[3.3]heptan-2-yl]methanone] | 7.07
CC(C)(C)c1nc(-c2ccc(C(=O)N3CC4(CC(n5cnc(C6CCC6)n5)C4)C3)cc2)no1 [Example 90, [4-(5-tert-butyl-1,2,4-oxadiazol-3-yl)phenyl]−[6-(3-cyclobutyl-1,2,4-triazol-1-yl)-2-azaspiro[3.3]heptan-2-yl]methanone] | 8.40
Cc1ccc(OC2CN(C(=O)N3CC4(CC(n5cnc(C6CC6)n5)C4)C3)C2)c(Cl)c1 [Example 97, (3-(2-chloro-4-methylphenoxy)azetidin-1-yl)(6-(3-cyclopropyl-1H-1,2,4-triazol-1-yl)-2-azaspiro[3.3]heptan-2-yl)methanone] | 8.47
O=C(N1C[C@H]2C[C@H](Oc3ccc(OC(F)F)cc3F)C[C@H]2C1)N1CC2(CC(n3cnc(C4CC4)n3)C2)C1 [Example 112, [6-(3-cyclopropyl-1,2,4-triazol-1-yl)-2-azaspiro[3.3]heptan-2-yl]−[rac-(3aS,6aR)-5-[4-(difluoromethoxy)-2-fluoro-phenoxy]-3,3a,4,5,6,6a-hexahydro-1H-cyclopenta[c]pyrrol-2-yl]methanone] | 8.22
Cc1cn(C2CC3(C2)CN(C(=O)N2CC4(CC(Cc5ccc(F)cc5F)C4)C2)C3)cn1 [Example 218, [6-[(2,4-difluorophenyl)methyl]-2-azaspiro[3.3]heptan-2-yl]-[6-(4-methylimidazol-1-yl)-2-azaspiro[3.3]heptan-2-yl]methanone] | 8.68
O=C(N1CC(C23CC(NCC4(C(F)(F)F)CC4)(C2)C3)C1)N1CC2(CC(n3cnc(C4CC4)n3)C2)C1 [Example 445, [6-(3-cyclopropyl-1,2,4-triazol-1-yl)-2-azaspiro[3.3]heptan-2-yl]-[3-[3-[[1-(trifluoromethyl)cyclopropyl]methylamino]-1-bicyclo[1.1.1]pentanyl]azetidin-1-yl]methanone] | 9.52
CS(=N)(=O)c1cccc(CC2CC3(C2)CN(C(=O)N2CC4(CC(n5cnc(C6CC6)n5)C4)C2)C3)c1 (single isomer, unassigned) [Example 441, [6-(3-cyclopropyl-1,2,4-triazol-1-yl)-2-azaspiro[3.3]heptan-2-yl]-[6-[[3-(methylsulfonimidoyl)phenyl]methyl]-2-azaspiro[3.3]heptan-2-yl]methanone] | 8.71
O=C(N1C[C@H]2C[C@H](Oc3ccc(F)c(OC(F)(F)F)c3)C[C@H]2C1)N1CC2(CC(n3cnc(C4CC4)n3)C2)C1 [Example 133, [6-(3-cyclopropyl-1,2,4-triazol-1-yl)-2-azaspiro[3.3]heptan-2-yl]-[rac-(3aS,6aR)-5-[4-fluoro-3-(trifluoromethoxy)phenoxy]-3,3a,4,5,6,6a-hexahydro-1H-cyclopenta[c]pyrrol-2-yl]methanone] | 8.89
O=C(N1CC2(CC(Cc3ccc(F)cc3F)C2)C1)N1CC2(CC(n3cnc(C4CC4)n3)C2)C1 [Example 41, [6-(3-cyclopropyl-1,2,4-triazol-1-yl)-2-azaspiro[3.3]heptan-2-yl]-[6-[(2,4-difluorophenyl)methyl]-2-azaspiro[3.3]heptan-2-yl]methanone] | 10.40
O=C(N1CC2(CCC(Cc3ccc(OC(F)F)nc3)CC2)C1)N1CC2(CC(c3cncc(F)c3)C2)C1 [Example 511, [7-[[6-(difluoromethoxy)-3-pyridyl]methyl]-2-azaspiro[3.5]nonan-2-yl]-[6-(5-fluoro-3-pyridyl)-2-azaspiro[3.3]heptan-2-yl]methanone] | 6.78
O=C(NCC(F)(F)F)c1cnn(C2CN(C(=O)N3CC4(CC(n5cnc(C6CC6)n5)C4)C3)C2)c1 [Example 312, 1-[1-[6-(3-cyclopropyl-1,2,4-triazol-1-yl)-2-azaspiro[3.3]heptane-2-carbonyl]azetidin-3-yl]-N-(2,2,2-trifluoroethyl)pyrazole-4-carboxamide] | 6.70

Continued, values first:

pIC50 | SMILES
7.40 | O=C(N1CC2(CC(Cc3ccc4[nH]ncc4n3)C2)C1)N1CC2(CC(n3cnc(C4(O)CC4)n3)C2)C1 [Example 383, [6-[3-(1-hydroxycyclopropyl)-1,2,4-triazol-1-yl]-2-azaspiro[3.3]heptan-2-yl]-[6-(1H-pyrazolo[4,3-b]pyridin-5-ylmethyl)-2-azaspiro[3.3]heptan-2-yl]methanone]
5.47 | CC(C)(C)c1nc(-c2ccc(C(=O)N3CC4(CC(n5ncnc5C5CC5)C4)C3)cc2)no1 [Example 17, [4-(5-tert-butyl-1,2,4-oxadiazol-3-yl)phenyl]-[6-(5-cyclopropyl-1,2,4-triazol-1-yl)-2-azaspiro[3.3]heptan-2-yl]methanone]
9.10 | CC1C(OCc2ccc(C(F)(F)F)cc2)CN1C(=O)N1CC2(CC(n3cnc(C4CC4)n3)C2)C1 (centres unmarked) [Example 138, [6-(3-cyclopropyl-1,2,4-triazol-1-yl)-2-azaspiro[3.3]heptan-2-yl]-[2-methyl-3-[[4-(trifluoromethyl)phenyl]methoxy]azetidin-1-yl]methanone]
8.93 | O=C(N1CC(c2ccc(-c3nnc(C4(C(F)(F)F)CC4)[nH]3)cc2)C1)N1CC2(CC(n3cnc(C4CC4)n3)C2)C1 [Example 466, [6-(3-cyclopropyl-1,2,4-triazol-1-yl)-2-azaspiro[3.3]heptan-2-yl]-[3-[4-[5-[1-(trifluoromethyl)cyclopropyl]-4H-1,2,4-triazol-3-yl]phenyl]azetidin-1-yl]methanone]
10.00 | O=C(N1CC(Oc2ccc(C3CC3)cc2)C1)N1CC2(CC(n3cnc(C4CC4)n3)C2)C1 [Example 183, (6-(3-cyclopropyl-1H-1,2,4-triazol-1-yl)-2-azaspiro[3.3]heptan-2-yl)(3-(4-cyclopropylphenoxy)azetidin-1-yl)methanone]
6.02 | O=C(N1CC(c2nnc(CC3CC3)[nH]2)C1)N1CC2(CC(n3cnc(C4CC4)n3)C2)C1 [Example 333, [3-[5-(cyclopropylmethyl)-4H-1,2,4-triazol-3-yl]azetidin-1-yl]-[6-(3-cyclopropyl-1,2,4-triazol-1-yl)-2-azaspiro[3.3]heptan-2-yl]methanone]
7.84 | N#Cc1cc(O[C@H]2C[C@@H]3CN(C(=O)N4CC5(CC(n6cnc(C7CC7)n6)C5)C4)C[C@@H]3C2)ccc1F [Example 127, 2-fluoro-5-[[rac-(3aS,6aR)-2-[6-(3-cyclopropyl-1,2,4-triazol-1-yl)-2-azaspiro[3.3]heptane-2-carbonyl]-3,3a,4,5,6,6a-hexahydro-1H-cyclopenta[c]pyrrol-5-yl]oxy]benzonitrile]
9.51 | O=C(N1CC2(CC(Cc3ccc(C(F)(F)F)cn3)C2)C1)N1CC2(CC(n3cnc(C4(O)CC4)n3)C2)C1 [Example 408, [6-[3-(1-hydroxycyclopropyl)-1,2,4-triazol-1-yl]-2-azaspiro[3.3]heptan-2-yl]-[6-[[5-(trifluoromethyl)-2-pyridyl]methyl]-2-azaspiro[3.3]heptan-2-yl]methanone]
7.15 | O=C(N1CC2(CC(n3cnc(C4CC4)n3)C2)C1)N1CC2(CC(n3ncnc3C3CC3)C2)C1 [Example 450, [6-(3-cyclopropyl-1,2,4-triazol-1-yl)-2-azaspiro[3.3]heptan-2-yl]-[6-(5-cyclopropyl-1,2,4-triazol-1-yl)-2-azaspiro[3.3]heptan-2-yl]methanone]
8.35 | COC(=O)c1ccccc1CN1CC2(C1)CN(C(=O)N1CC3(CC(n4cnc(C5CC5)n4)C3)C1)C2 [Example 229, methyl 2-[[2-[6-(3-cyclopropyl-1,2,4-triazol-1-yl)-2-azaspiro[3.3]heptane-2-carbonyl]-2,6-diazaspiro[3.3]heptan-6-yl]methyl]benzoate]
7.01 | O=C(N1CC(c2nc(C3(C(F)(F)F)CC3)no2)C1)N1CC2(CC(n3cnc(C4CC4)n3)C2)C1 [Example 166, [6-(3-cyclopropyl-1,2,4-triazol-1-yl)-2-azaspiro[3.3]heptan-2-yl]-[3-[3-[1-(trifluoromethyl)cyclo-propyl]-1,2,4-oxadiazol-5-yl]azetidin-1-yl]methanone]
7.00 | O=C(N1CC(CNS(=O)(=O)c2ccc(F)cc2C(F)(F)F)C1)N1CC2(CC(n3cnc(C4CC4)n3)C2)C1 [Example 302]
8.74 | O=C(N1CC2(CC(Cc3ccc(S(=O)(=O)C4CC4)cc3)C2)C1)N1CC2(CC(n3cnc(C4(O)CC4)n3)C2)C1 [Example 364, [6-[(4-cyclopropylsulfonylphenyl)methyl]-2-azaspiro[3.3]heptan-2-yl]-[6-[3-(1-hydroxycyclopropyl)-1,2,4-triazol-1-yl]-2-azaspiro[3.3]heptan-2-yl]methanone]
8.33 | N#Cc1cc(O[C@H]2C[C@@H]3CN(C(=O)N4CC5(CC(n6cnc(C7CC7)n6)C5)C4)C[C@@H]3C2)ccc1C(F)(F)F [Example 118, 5-[rac-(3aS,6aR)-2-[6-(3-cyclopropyl-1,2,4-triazol-1-yl)-2-azaspiro[3.3]heptane-2-carbonyl]-3,3a,4,5,6,6a-hexahydro-1H-cyclopenta[c]pyrrol-5-yl]oxy]-2-(trifluoromethyl) benzonitrile]

— patent US20240199587A1, “HETEROCYCLIC COMPOUNDS” (Hoffmann-La Roche Inc., priority 2021, published 2024)
